{"source": "paper PMC6917776", "about": "“Discovery of a chemical probe for PRDM9” (Nature Communications, 2019)", "assay_in_all_cases": "Methyltransferase selectivity assay (SPA)", "type_in_all_cases": "biochemical", "key": {"[1]": {"target": "T1, EZH2 (PRC2) trimeric complex (Homo sapiens, UniProt Q15910)", "T1 construct": "purchased Structural Genomics Consortium (SGC Toronto) in-house methyltransferase panel", "T1 sequence (Q15910 whole entry)": "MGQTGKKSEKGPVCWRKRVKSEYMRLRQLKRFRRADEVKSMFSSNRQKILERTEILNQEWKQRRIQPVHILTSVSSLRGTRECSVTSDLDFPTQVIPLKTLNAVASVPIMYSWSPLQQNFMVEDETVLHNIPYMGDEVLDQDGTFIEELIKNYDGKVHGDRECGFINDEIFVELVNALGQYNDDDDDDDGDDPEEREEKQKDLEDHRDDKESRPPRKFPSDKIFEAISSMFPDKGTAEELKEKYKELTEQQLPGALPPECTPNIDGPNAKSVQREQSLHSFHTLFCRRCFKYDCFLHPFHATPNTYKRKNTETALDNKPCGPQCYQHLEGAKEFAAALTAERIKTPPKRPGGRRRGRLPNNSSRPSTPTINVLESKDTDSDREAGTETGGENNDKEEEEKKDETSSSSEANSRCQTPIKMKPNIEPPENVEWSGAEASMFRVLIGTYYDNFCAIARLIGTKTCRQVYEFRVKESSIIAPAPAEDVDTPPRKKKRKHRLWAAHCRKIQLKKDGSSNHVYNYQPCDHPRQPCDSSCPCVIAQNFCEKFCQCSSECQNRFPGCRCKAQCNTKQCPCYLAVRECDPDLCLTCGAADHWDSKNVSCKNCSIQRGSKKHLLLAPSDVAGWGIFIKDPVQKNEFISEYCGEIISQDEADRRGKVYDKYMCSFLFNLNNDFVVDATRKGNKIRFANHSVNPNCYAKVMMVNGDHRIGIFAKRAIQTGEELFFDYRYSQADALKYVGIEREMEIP", "T1 sequence (O75530 whole entry partner)": "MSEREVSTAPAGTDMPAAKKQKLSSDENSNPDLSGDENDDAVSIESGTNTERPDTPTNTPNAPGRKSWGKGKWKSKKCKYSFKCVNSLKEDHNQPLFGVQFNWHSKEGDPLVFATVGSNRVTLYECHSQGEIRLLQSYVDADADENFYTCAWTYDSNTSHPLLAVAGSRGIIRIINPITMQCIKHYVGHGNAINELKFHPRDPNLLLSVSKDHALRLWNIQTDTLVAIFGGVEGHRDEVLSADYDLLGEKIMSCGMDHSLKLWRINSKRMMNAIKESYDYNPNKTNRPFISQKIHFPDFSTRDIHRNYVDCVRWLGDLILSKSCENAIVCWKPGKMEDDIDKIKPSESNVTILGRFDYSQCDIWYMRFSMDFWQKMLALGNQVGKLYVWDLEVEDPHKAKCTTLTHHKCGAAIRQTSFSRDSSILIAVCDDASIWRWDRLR", "T1 sequence (Q15022 whole entry partner)": "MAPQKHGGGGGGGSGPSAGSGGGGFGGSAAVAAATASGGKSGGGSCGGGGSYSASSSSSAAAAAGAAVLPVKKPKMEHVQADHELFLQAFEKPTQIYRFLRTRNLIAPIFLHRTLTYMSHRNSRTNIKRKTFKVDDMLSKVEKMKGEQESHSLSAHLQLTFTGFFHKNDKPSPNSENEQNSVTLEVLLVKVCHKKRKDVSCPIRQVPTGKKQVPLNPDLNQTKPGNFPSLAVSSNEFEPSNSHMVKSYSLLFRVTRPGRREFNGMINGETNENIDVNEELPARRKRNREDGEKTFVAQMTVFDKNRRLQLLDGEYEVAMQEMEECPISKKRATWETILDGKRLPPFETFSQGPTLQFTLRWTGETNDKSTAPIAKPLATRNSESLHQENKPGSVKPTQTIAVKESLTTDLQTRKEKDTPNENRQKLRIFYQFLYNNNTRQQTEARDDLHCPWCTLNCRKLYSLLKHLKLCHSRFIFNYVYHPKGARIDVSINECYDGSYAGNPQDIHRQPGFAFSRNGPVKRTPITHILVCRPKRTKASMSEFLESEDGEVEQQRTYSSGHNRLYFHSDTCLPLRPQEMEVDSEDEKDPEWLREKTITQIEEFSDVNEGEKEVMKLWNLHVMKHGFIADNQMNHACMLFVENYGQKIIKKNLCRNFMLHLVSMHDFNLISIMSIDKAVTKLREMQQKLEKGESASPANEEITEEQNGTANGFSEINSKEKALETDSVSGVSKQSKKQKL"}, "MLL3 pentameric complex": {"target": "T2, MLL3 pentameric complex (Homo sapiens, UniProt Q8NEZ4)", "T2 construct": "purchased Structural Genomics Consortium (SGC Toronto) in-house methyltransferase panel"}, "PRMT4": {"target": "T3, PRMT4 (Homo sapiens, UniProt Q86X55)", "T3 construct": "purchased Structural Genomics Consortium (SGC Toronto) in-house methyltransferase panel", "T3 sequence (Q86X55 1-608)": "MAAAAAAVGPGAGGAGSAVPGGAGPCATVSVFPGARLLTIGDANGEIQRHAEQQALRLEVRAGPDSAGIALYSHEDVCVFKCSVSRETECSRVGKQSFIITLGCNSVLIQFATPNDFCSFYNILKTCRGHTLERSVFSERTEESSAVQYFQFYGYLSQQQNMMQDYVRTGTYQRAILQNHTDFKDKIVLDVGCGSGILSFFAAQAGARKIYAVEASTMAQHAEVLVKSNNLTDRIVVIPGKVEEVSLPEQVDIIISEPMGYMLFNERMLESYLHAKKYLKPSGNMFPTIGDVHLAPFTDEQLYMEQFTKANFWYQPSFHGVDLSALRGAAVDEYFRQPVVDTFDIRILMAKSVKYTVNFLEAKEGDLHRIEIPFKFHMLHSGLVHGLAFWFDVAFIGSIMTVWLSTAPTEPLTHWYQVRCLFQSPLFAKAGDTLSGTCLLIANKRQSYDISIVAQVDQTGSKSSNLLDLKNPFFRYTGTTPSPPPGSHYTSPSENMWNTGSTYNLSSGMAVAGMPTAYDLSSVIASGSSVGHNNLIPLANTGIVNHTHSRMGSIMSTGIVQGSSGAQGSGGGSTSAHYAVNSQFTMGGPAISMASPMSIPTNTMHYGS"}, "PRMT7": {"target": "T4, PRMT7 (Homo sapiens, UniProt Q9NVM4)", "T4 construct": "purchased Structural Genomics Consortium (SGC Toronto) in-house methyltransferase panel", "T4 sequence (Q9NVM4 1-692)": "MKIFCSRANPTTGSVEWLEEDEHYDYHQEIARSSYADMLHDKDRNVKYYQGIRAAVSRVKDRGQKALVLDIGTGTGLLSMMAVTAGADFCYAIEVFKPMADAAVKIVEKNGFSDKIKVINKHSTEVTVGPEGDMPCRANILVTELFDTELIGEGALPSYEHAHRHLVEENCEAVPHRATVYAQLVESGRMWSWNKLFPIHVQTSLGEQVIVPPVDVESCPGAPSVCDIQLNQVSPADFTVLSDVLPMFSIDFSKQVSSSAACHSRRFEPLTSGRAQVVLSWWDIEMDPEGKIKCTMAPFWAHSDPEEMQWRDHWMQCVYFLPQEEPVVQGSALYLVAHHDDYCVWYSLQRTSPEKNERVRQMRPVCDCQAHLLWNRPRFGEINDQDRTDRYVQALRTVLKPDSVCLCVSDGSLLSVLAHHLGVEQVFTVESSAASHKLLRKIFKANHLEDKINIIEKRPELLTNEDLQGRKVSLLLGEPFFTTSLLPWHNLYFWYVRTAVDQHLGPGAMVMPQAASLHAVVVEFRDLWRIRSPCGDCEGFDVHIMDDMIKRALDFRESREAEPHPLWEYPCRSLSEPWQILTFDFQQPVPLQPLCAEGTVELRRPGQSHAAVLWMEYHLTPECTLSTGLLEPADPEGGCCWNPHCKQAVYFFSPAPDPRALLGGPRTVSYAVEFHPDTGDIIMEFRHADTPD"}, "SETD2": {"target": "T5, SETD2 (Homo sapiens, UniProt Q9BYW2)", "T5 construct": "purchased Structural Genomics Consortium (SGC Toronto) in-house methyltransferase panel", "summary_of_the_method": "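Radiometric 3H-SAM assays at SAM and substrate concentrations near each enzyme's apparent Km. PRMT8 and SETD2 methylated biotinylated substrate, read by scintillation proximity after guanidine quench. ASH1L and NSD3 methylated nucleosome substrate for 1 h at 23°C, then TCA precipitation on filters and scintillation counting.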"}, "SETDB1": {"target": "T6, SETDB1 (Homo sapiens, UniProt Q15047)", "T6 construct": "purchased Structural Genomics Consortium (SGC Toronto) in-house methyltransferase panel"}, "SMYD2": {"target": "T7, SMYD2 (Homo sapiens, UniProt Q9NRG4)", "T7 construct": "purchased Structural Genomics Consortium (SGC Toronto) in-house methyltransferase panel", "T7 sequence (Q9NRG4 whole entry)": "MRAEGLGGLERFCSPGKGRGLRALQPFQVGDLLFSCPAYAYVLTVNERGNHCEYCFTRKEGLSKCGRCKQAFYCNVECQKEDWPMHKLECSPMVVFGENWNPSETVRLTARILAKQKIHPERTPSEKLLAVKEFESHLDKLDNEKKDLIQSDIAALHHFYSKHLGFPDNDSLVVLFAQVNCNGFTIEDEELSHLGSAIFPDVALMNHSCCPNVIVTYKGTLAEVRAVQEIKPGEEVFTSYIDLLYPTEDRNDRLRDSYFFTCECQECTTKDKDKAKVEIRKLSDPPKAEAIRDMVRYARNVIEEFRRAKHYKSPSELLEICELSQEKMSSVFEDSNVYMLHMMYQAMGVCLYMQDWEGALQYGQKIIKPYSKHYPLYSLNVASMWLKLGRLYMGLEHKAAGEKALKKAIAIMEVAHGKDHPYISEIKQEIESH"}, "SUV420H2": {"target": "T8, SUV420H2 (Homo sapiens, UniProt Q86Y97)", "T8 construct": "purchased Structural Genomics Consortium (SGC Toronto) in-house methyltransferase panel", "T8 sequence (Q86Y97 whole entry)": "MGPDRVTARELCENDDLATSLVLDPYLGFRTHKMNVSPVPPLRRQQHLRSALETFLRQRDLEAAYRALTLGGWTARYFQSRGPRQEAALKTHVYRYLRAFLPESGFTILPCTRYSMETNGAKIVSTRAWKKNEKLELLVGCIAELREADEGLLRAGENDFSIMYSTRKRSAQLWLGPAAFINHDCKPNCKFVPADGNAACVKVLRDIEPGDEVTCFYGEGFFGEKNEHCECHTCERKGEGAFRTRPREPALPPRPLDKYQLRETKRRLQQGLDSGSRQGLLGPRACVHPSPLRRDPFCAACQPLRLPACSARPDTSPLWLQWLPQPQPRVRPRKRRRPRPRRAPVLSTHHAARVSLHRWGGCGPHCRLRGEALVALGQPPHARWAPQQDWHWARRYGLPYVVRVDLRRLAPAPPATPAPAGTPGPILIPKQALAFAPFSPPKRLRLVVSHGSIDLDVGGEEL"}, "[2]": {"settings": "1µM compound, Exp1, Exp2, read-out: Activity %"}, "[3]": {"settings": "10µM compound, Exp1, Exp2, 10 µM"}, "[4]": {"settings": "10µM compound, Exp1, Exp2, read-out: Activity %"}}, "note": "Read-outs that look alike come from different tables or passages of the source."}
{"smiles": "COc1cc(OC)cc(-c2noc(N3CCN(C)C4(CCN(c5ccnc(C)c5)CC4)C3)n2)c1", "note": "[MRK-740]", "values": [{"measurement": "Activity %", "setting": "[1]; 1µM compound, Exp1, Exp2, 1 µM", "value": 104, "unit": "%"}, {"measurement": "activity at 1 µM", "setting": "[1]; [2]", "value": 102, "unit": "%"}, {"measurement": "Activity %", "setting": "[1]; [3]", "value": 103, "unit": "%"}, {"measurement": "activity at 10 µM", "setting": "[1]; [4]", "value": 102, "unit": "%"}, {"measurement": "Activity %", "setting": "MLL3 pentameric complex; 1µM compound, Exp1, Exp2, 1 µM", "value": 95, "unit": "%"}, {"measurement": "activity at 1 µM", "setting": "MLL3 pentameric complex; [2]", "value": 89, "unit": "%"}, {"measurement": "Activity %", "setting": "MLL3 pentameric complex; [3]", "value": 86, "unit": "%"}, {"measurement": "activity at 10 µM", "setting": "MLL3 pentameric complex; [4]", "value": 94, "unit": "%"}, {"measurement": "Activity %", "setting": "PRMT4; 1µM compound, Exp1, Exp2, 1 µM", "value": 98, "unit": "%"}, {"measurement": "activity at 1 µM", "setting": "PRMT4; [2]", "value": 101, "unit": "%"}, {"measurement": "Activity %", "setting": "PRMT4; [3]", "value": 99, "unit": "%"}, {"measurement": "activity at 10 µM", "setting": "PRMT4; [4]", "value": 96, "unit": "%"}, {"measurement": "Activity %", "setting": "PRMT7; 1µM compound, Exp1, Exp2, 1 µM", "value": 90, "unit": "%"}, {"measurement": "activity at 1 µM", "setting": "PRMT7; [2]", "value": 92, "unit": "%"}, {"measurement": "Activity %", "setting": "PRMT7; [3]", "value": 87, "unit": "%"}, {"measurement": "activity at 10 µM", "setting": "PRMT7; [4]", "value": 89, "unit": "%"}, {"measurement": "Activity %", "setting": "SETD2; 1µM compound, Exp1, Exp2, 1 µM", "value": 96, "unit": "%"}, {"measurement": "activity at 1 µM", "setting": "SETD2; [2]", "value": 97, "unit": "%"}, {"measurement": "Activity %", "setting": "SETD2; [3]", "value": 86, "unit": "%"}, {"measurement": "activity at 10 µM", "setting": "SETD2; [4]", "value": 90, "unit": "%"}, {"measurement": "Activity %", "setting": "SETDB1; 1µM compound, Exp1, Exp2, 1 µM", "value": 84, "unit": "%"}, {"measurement": "activity at 1 µM", "setting": "SETDB1; [2]", "value": 81, "unit": "%"}, {"measurement": "Activity %", "setting": "SETDB1; [3]", "value": 96, "unit": "%"}, {"measurement": "activity at 10 µM", "setting": "SETDB1; [4]", "value": 86, "unit": "%"}, {"measurement": "Activity %", "setting": "SMYD2; 1µM compound, Exp1, Exp2, 1 µM", "value": 89, "unit": "%"}, {"measurement": "activity at 1 µM", "setting": "SMYD2; [2]", "value": 86, "unit": "%"}, {"measurement": "Activity %", "setting": "SMYD2; [3]", "value": 92, "unit": "%"}, {"measurement": "activity at 10 µM", "setting": "SMYD2; [4]", "value": 91, "unit": "%"}, {"measurement": "Activity %", "setting": "SUV420H2; 1µM compound, Exp1, Exp2, 1 µM", "value": 95, "unit": "%"}, {"measurement": "activity at 1 µM", "setting": "SUV420H2; [2]", "value": 97, "unit": "%"}, {"measurement": "Activity %", "setting": "SUV420H2; [3]", "value": 103, "unit": "%"}, {"measurement": "activity at 10 µM", "setting": "SUV420H2; [4]", "value": 100, "unit": "%"}]}
{"smiles": "COc1cc(OC)cc(-c2noc(N3CCN(C)C4(CCN(c5ccccc5)CC4)C3)n2)c1", "note": "[MRK-740 -NC]", "values": [{"measurement": "activity at 1 µM", "setting": "[1]; 1µM compound, Exp1, Exp2", "value": 99, "unit": "%"}, {"measurement": "Activity %", "setting": "[1]; 1µM compound, Exp1, Exp2, 1 µM", "value": 112, "unit": "%"}, {"measurement": "activity at 10 µM", "setting": "[1]; 10µM compound, Exp1, Exp2", "value": 100, "unit": "%"}, {"measurement": "Activity %", "setting": "[1]; [3]", "value": 95, "unit": "%"}, {"measurement": "activity at 1 µM", "setting": "MLL3 pentameric complex; 1µM compound, Exp1, Exp2", "value": 108, "unit": "%"}, {"measurement": "Activity %", "setting": "MLL3 pentameric complex; 1µM compound, Exp1, Exp2, 1 µM", "value": 105, "unit": "%"}, {"measurement": "activity at 10 µM", "setting": "MLL3 pentameric complex; 10µM compound, Exp1, Exp2", "value": 107, "unit": "%"}, {"measurement": "Activity %", "setting": "MLL3 pentameric complex; [3]", "value": 95, "unit": "%"}, {"measurement": "activity at 1 µM", "setting": "PRMT4; 1µM compound, Exp1, Exp2", "value": 108, "unit": "%"}, {"measurement": "Activity %", "setting": "PRMT4; 1µM compound, Exp1, Exp2, 1 µM", "value": 89, "unit": "%"}, {"measurement": "activity at 10 µM", "setting": "PRMT4; 10µM compound, Exp1, Exp2", "value": 87, "unit": "%"}, {"measurement": "Activity %", "setting": "PRMT4; [3]", "value": 89, "unit": "%"}, {"measurement": "activity at 1 µM", "setting": "PRMT7; 1µM compound, Exp1, Exp2", "value": 99, "unit": "%"}, {"measurement": "Activity %", "setting": "PRMT7; 1µM compound, Exp1, Exp2, 1 µM", "value": 92, "unit": "%"}, {"measurement": "activity at 10 µM", "setting": "PRMT7; 10µM compound, Exp1, Exp2", "value": 91, "unit": "%"}, {"measurement": "Activity %", "setting": "PRMT7; [3]", "value": 97, "unit": "%"}, {"measurement": "activity at 1 µM", "setting": "SETD2; 1µM compound, Exp1, Exp2", "value": 97, "unit": "%"}, {"measurement": "Activity %", "setting": "SETD2; 1µM compound, Exp1, Exp2, 1 µM", "value": 107, "unit": "%"}, {"measurement": "activity at 10 µM", "setting": "SETD2; 10µM compound, Exp1, Exp2", "value": 99, "unit": "%"}, {"measurement": "Activity %", "setting": "SETD2; [3]", "value": 98, "unit": "%"}, {"measurement": "activity at 1 µM", "setting": "SETDB1; 1µM compound, Exp1, Exp2", "value": 104, "unit": "%"}, {"measurement": "activity at 10 µM", "setting": "SETDB1; 10µM compound, Exp1, Exp2", "value": 101, "unit": "%"}, {"measurement": "Activity %", "setting": "SETDB1; [3]", "value": 86, "unit": "%"}, {"measurement": "activity at 1 µM", "setting": "SMYD2; 1µM compound, Exp1, Exp2", "value": 102, "unit": "%"}, {"measurement": "Activity %", "setting": "SMYD2; 1µM compound, Exp1, Exp2, 1 µM", "value": 100, "unit": "%"}, {"measurement": "activity at 10 µM", "setting": "SMYD2; 10µM compound, Exp1, Exp2", "value": 101, "unit": "%"}, {"measurement": "Activity %", "setting": "SMYD2; [3]", "value": 99, "unit": "%"}, {"measurement": "activity at 1 µM", "setting": "SUV420H2; 1µM compound, Exp1, Exp2", "value": 106, "unit": "%"}, {"measurement": "activity at 10 µM", "setting": "SUV420H2; 10µM compound, Exp1, Exp2", "value": 98, "unit": "%"}, {"measurement": "Activity %", "setting": "SUV420H2; [3]", "value": 103, "unit": "%"}]}
